Results taken from patent publication US9328130B2, “Method of treating organism by biologically active compounds specifically delivered into mitochondria, pharmaceutical composition required for the use of the method and a compound applicable for this purpose” (MITOTECH S.A., priority 2005, dated 2016).

How the values were obtained:
[1] = tested on: OXYS rats; assay: Cataract and macular dystrophy in senescence-accelerated OXYS rats; assay type: in vivo, rat; conditions: for 2nd stage of cataract / 2nd stage of macular degeneration / changes in the macular area of the retina: OXYS rats age 3 months after oral course; for eyes with lens changes: OXYS rats age 3 months after oral course from 1.5 to 3 months
Protocol: The animals were housed in cages (45*35*35 cm) and kept under standard laboratory conditions (at 22±1° C., 60% relative humidity, and natural light), provided with a standard rodent diet (PK-120-1, Ltd. ‘Laboratorsnab’, Russia), and given water ad libitum. At the age of 1.5 months after preliminary pupil dilation with 1% tropicamide ophthalmic the rats were conducted through ophthalmoscopic examination using direct ophthalmoscop “Betta”, Germany. […] We use Vitamin E for a comparison with test antioxidants. Animals received the compounds on a small piece of dried bread before a regular meal, and the control group of animals received the same piece of bread without any compound. After completing the course of antioxidants the animals were retested with ophthalmoscope. To avoid human factor in the evaluation of compound effects the researcher who conducted the ophthalmoscopic examination was not told which of the animals received antioxidants. The lens state was evaluated according to the classification system accepted in clinical practice with grades ranging from 0 to 3: score 0—the lens is clear; score 1—spotted weak cloudiness; score 2—multiple spots of cloudiness and score 3—intense cloudiness of the lens core and nucleus.

[2] = Accumulation of MitoQ in tissues when fed to animals (prior art); assay type: in vivo; conditions: feeding to animals
Protocol: It should also be noted that despite some promising observations concerning the MitoQ action, there are several results and calculations that cast doubt on the possibility of practical application of this compound. For example, it was shown in experiments with cell culture that MitoQ provides its antioxidant and anti-apoptotic action at concentration about 1 μM in the medium. It means that MitoQ concentrations inside the mitochondria should be 1 mM provided that membrane potential is about 180 mV. On the other hand, it was shown by Smith R A, Porteous C M, Gane A M, Murphy M P, Proc Natl Acad Sci USA, 2003, 100(9):5407-12 when feeding MitoQ to animals, the accumulation of MitoQ in the most oxidative stress sensitive tissues (heart and brain) amounts up to 100 pmoles/gram, which corresponds to the MitoQ concentration inside heart mitochondria equal to 100 nM. This is more than 1000 times lower than the concentration shown to be efficient in the cell culture experiments. Formally, the concentration can be raised by the increase of amounts of MitoQ fed to animals, but this is, in fact, not possible due to the toxicity of the compound.

[3] = tested on: Hela cells
[4] = feeding to animals; cited from earlier work
[5] = tested on: cell culture; conditions: cited from earlier work
[6] = tested on: cells in culture; conditions: cited from earlier work
[7] = tested on: Yarrowia lipolytica; assay: Protection of yeast cells from death caused by hydrogen peroxide; assay type: cell-based; conditions: FIG. 14; α-tocopherol 25 μM
[8] = tested on: Hela cells; assay: Transmission of apoptotic signal between inducer and recipient slides; assay type: cell-based, human; conditions: 2500 E/ml added to medium for joint incubation
Protocol: HeLa cells were used in these experiments. Cells grown on a glass slide were treated with different apoptosis-inducing agents (tumor necrosis factor (TNF), staurosporine, H2O2) for 3 h. Then the glass slide with cells (inducer) was washed to remove these reagents and placed into Petri plate to come into contact with glass slide (recipient) with cells grown in the absence of any apoptosis-inducing agent. After 16-18 h of subsequent growth and staining the cells with Hoechst 33342 as described above, apoptosis at both glass slides was analyzed.
Thus the main mediator of apoptosis signal was H2O2.

[Br-].[K+] [KBr]
2nd stage of cataract [1]: 57% | 2nd stage of macular degeneration [1]: 13% | changes in the macular area of the retina [1]: 87% | eyes with lens changes [1]: 93%

COC1=C(OC)C(=O)C(CCCCCCCCCC[P+](c2ccccc2)(c2ccccc2)c2ccccc2)=C(C)C1=O [MitoQ]
corresponding concentration inside heart mitochondria [2]: 100 nM | LD50 in the presence of hydrogen peroxide ([3]; 100 μM hydrogen peroxide): 4 µM | LD50 (concentrations at which 50% cells die) ([3]; 2 h of incubation, no hydrogen peroxide): 7 µM | accumulation in heart and brain [4]: up to 100 pmoles/gram | concentration in the medium giving antioxidant and anti-apoptotic action [5]: about 1 μM

Cc1c(C)c2c(c(C)c1O)CCC(C)(CC[P+](c1ccccc1)(c1ccccc1)c1ccccc1)O2 (stereo not drawn) [MitoVitE]
concentration with no toxic effect on cells in culture [6]: 10 µM | prevention of apoptosis in cultured cells ([6]; effect retained in the presence of uncoupler FCCP): able to prevent apoptosis in cultured cells

C[C@@H]1C[C@@H]([C@H](O)CC2CC(=O)NC(=O)C2)C(=O)[C@@H](C)C1 [cycloheximide D, reference compound]
effect on survival compared among protectants [7]: very similar

Cc1c(C)c2c(c(C)c1O)CC[C@@](C)(CCC[C@H](C)CCC[C@H](C)CCCC(C)C)O2 [tocopherol, α-tocopherol, reference compound]
effect on survival compared among protectants [7]: very similar

CC(=O)Oc1c(C)c(C)c2c(c1C)CCC(C)(CCC[C@H](C)CCC[C@H](C)CCCC(C)C)O2 (stereo partly drawn) [vitamin E, alfa-tocopherol acetate]
2nd stage of cataract [1]: 12% | 2nd stage of macular degeneration [1]: 8% | changes in the macular area of the retina [1]: 54% | eyes with lens changes [1]: 58%

B1: catalase: catalase (2500 E/ml) added into the medium for joint incubation (protein, UniProt P00432 2-527, looked up)
Catalase: ADNRDPASDQMKHWKEQRAAQKPDVLTTGGGNPVGDKLNSLTVGPRGPLLVQDVVFTDEMAHFDRERIPERVVHAKGAGAFGYFEVTHDITRYSKAKVFEHIGKRTPIAVRFSTVAGESGSADTVRDPRGFAVKFYTEDGNWDLVGNNTPIFFIRDALLFPSFIHSQKRNPQTHLKDPDMVWDFWSLRPESLHQVSFLFSDRGIPDGHRHMNGYGSHTFKLVNANGEAVYCKFHYKTDQGIKNLSVEDAARLAHEDPDYGLRDLFNAIATGNYPSWTLYIQVMTFSEAEIFPFNPFDLTKVWPHGDYPLIPVGKLVLNRNPVNYFAEVEQLAFDPSNMPPGIEPSPDKMLQGRLFAYPDTHRHRLGPNYLQIPVNCPYRARVANYQRDGPMCMMDNQGGAPNYYPNSFSAPEHQPSALEHRTHFSGDVQRFNSANDDNVTQVRTFYLKVLNEEQRKRLCENIAGHLKDAQLFIQKKAVKNFSDVHPEYGSRIQALLDKYNEEKPKNAVHTYVQHGSHLSAREKANL
apoptosis of recipient cells [8]: prevented apoptosis of recipient cells
